Consider four compounds from publication PMC12281142, “A potent phenylalkylamine disrupts mycobacterial membrane bioenergetics and augments bactericidal activity of bedaquiline” (iScience, 2025).

Assay [1] deals with M. bovis BCG. Put plainly: microbe, parasite or virus in culture. The assay is classed as cell-based, Mycobacterium bovis BCG. The conditions noted are these: Mycobacterium tuberculosis variant bovis BCG, BCG.
Assay [2] has as its system M. smegmatis mc2155. The assay is described as follows: MIC against M. smegmatis mc2155. Conditions: Mycolicibacterium smegmatis. It is filed as cell-based, Mycobacterium smegmatis.
For assay [3], the system named is Mab massiliense CCUG 48898-T. Put plainly: MIC against Mab massiliense CCUG 48898-T. The assay is classed as cell-based, Mycobacterium abscessus subsp. massiliense. The conditions noted are these: Mycobacteroides abscessus; for MIC50: CCUG48898, 72 h, 3 days.
Assay [4] deals with Mab abscessus ATCC 19977. The assay is described as follows: MIC against Mab abscessus ATCC 19977. It is filed as cell-based, Mycobacterium abscessus subsp. abscessus. The conditions noted are these: Mycobacteroides abscessus; for MIC90: read-out: MIC90 Mab abscessus ATCC 19977; for MIC50: ATCC19977, 72 h, 3 days.
Assay [5] has as its system Mab bolletii CCUG 50184-T. Put plainly: MIC against Mab bolletii CCUG 50184-T. The assay is classed as cell-based, Mycobacterium abscessus subsp. bolletii. The conditions noted are these: Mycobacteroides abscessus; for MIC50: CCUG50184, 72 h, 3 days.
In assay [6] the test system is Mab complex. The assay is described as follows: MIC against Mab complex (summary over the 3 subspecies). It is filed as cell-based, Mycobacterium abscessus. Conditions: Mycobacteroides abscessus, read-out: MIC90 Mab complex.
In assay [7] the test system is clinical isolates of Mab. The assay is described as follows: MIC50 against Mab clinical isolates. The conditions noted are these: Mycobacteroides abscessus. It is filed as cell-based, Mycobacterium abscessus.
For assay [8], the system named is Mtb H37Rv. Conditions: minimum concentration to inhibit growth of Mtb H37RV by 99%; cited from earlier work.
Where [9] appears, read: M. bovis BCG, broth dilution, growth reduced by 90% vs untreated.
Where [10] appears, read: 7H9 medium (first value of cell).
Where [11] appears, read: CA-MHB medium (second value of cell).
Setting [12] is: M. bovis BCG, broth dilution, growth reduced by 50% vs untreated.
[13] abbreviates: read-out: MIC90 (Table S1), M. bovis BCG, broth dilution.

Molecules are shown by their SMILES. Converted amounts (≈) assume the structure as drawn. Read-outs that look alike come from different tables or passages of the source.

As for `COc1ccc(CCN(C)CCCC(C#N)(CCCCCCCN=[N+]=[N-])c2ccc(OC)c(OC)c2)cc1OC` (centres unmarked) [AZ-2], the MIC90 in assay [1] (setting [9]) came out at 27 µM (≈ 14.9 µg/mL); in assay [1] (read-out: M. bovis BCG MIC90 (Table S4)) it was 27 µM (≈ 14.9 µg/mL); in assay [2] (MC2155, 24 h, incubation 1 day, read-out: M. smegmatis mc2155 MIC90 (Table S4)) it was 58 µM (≈ 32 µg/mL); in assay [2] (MC2155, read-out: MIC90 M. smegmatis), 58 µM (≈ 32 µg/mL). Moreover, the MIC50 was determined as 12 µM (≈ 6.62 µg/mL) in assay [1] (read-out: M. bovis BCG MIC50 (Table S4)) and 38 µM (≈ 21 µg/mL) in assay [2] (MC2155, 24 h, incubation 1 day, read-out: M. smegmatis mc2155 MIC50 (Table S4)).
Regarding `CC[C@H]1OC(=O)[C@H](C)[C@@H](O[C@H]2C[C@@](C)(OC)[C@@H](O)[C@H](C)O2)[C@H](C)[C@@H](O[C@@H]2O[C@H](C)C[C@H](N(C)C)[C@H]2O)[C@](C)(OC)C[C@@H](C)C(=O)[C@H](C)[C@@H](O)[C@]1(C)O` [CLR, clarithromycin, reference compound], the MIC90 in assay [3] (CCUG48898, 7H9 broth (first value)) was found to be 2 µM (≈ 1.5 µg/mL); in assay [3] (CCUG48898, camH broth (second value)), 0.23 µM (≈ 0.172 µg/mL); in assay [4] (ATCC19977, 7H9 broth (first value)), 0.5 µM (≈ 0.374 µg/mL); in assay [4] (ATCC19977, camH broth (second value)) it was 0.4 µM (≈ 0.299 µg/mL); in assay [5] (CCUG50184, 7H9 broth (first value)), 19 µM (≈ 14.2 µg/mL); in assay [5] (CCUG50184, camH broth (second value)), 11 µM (≈ 8.23 µg/mL). For the same compound, the MIC90 in assay [6] was in the range of 0.1 to 8.8 µM; in assay [6] (range over subspecies, positive control), 0.08 to 6.6 µg/mL. Further, the MIC50 was 0.5 µM (≈ 0.374 µg/mL) in assay [3] (setting [10]); 0.1 µM (≈ 0.0748 µg/mL) in assay [3] (setting [11]); 0.2 µM (≈ 0.15 µg/mL) in assay [4] (setting [10]); 0.15 µM (≈ 0.112 µg/mL) in assay [4] (setting [11]); 8.8 µM (≈ 6.58 µg/mL) in assay [5] (setting [10]); 1 µM (≈ 0.748 µg/mL) in assay [5] (setting [11]). Further, the MIC50 in assay [7] (Mab clinical isolate M9, 7H9 broth, read-out: MIC50 M9) came to 0.1 µM (≈ 0.0748 µg/mL); in assay [7] (Mab clinical isolate M111, 7H9 broth, read-out: MIC50 M111) it was 0.08 µM (≈ 0.0598 µg/mL); in assay [7] (Mab clinical isolate M232, 7H9 broth, read-out: MIC50 M232), 0.27 µM (≈ 0.202 µg/mL); in assay [7] (Mab clinical isolate M337, 7H9 broth, read-out: MIC50 M337), 0.15 µM (≈ 0.112 µg/mL); in assay [7] (Mab clinical isolate M404, 7H9 broth, read-out: MIC50 M404), 0.1 µM (≈ 0.0748 µg/mL); in assay [7] (Mab clinical isolate M422, 7H9 broth, read-out: MIC50 M422), 0.22 µM (≈ 0.165 µg/mL). The MIC50 in assay [7] (Mab clinical isolate M506, 7H9 broth, read-out: MIC50 M506) worked out at 0.09 µM (≈ 0.0673 µg/mL).
For the compound `COc1ccc(C(C#N)(CCCN2CCN(c3ccccc3F)CC2)C(C)C)cc1OC` (centres unmarked) [Compound A1, reference compound], in assay [1] (setting [12]), the MIC50 is 87 µM (≈ 38.2 µg/mL). Further, the MIC90 in assay [1] (setting [9]) and in assay [1] (setting [13]) was 138 µM (≈ 60.7 µg/mL) in each case. In addition, the “MIC99 Mtb” value in assay [8] is 62.5 µM (≈ 27.5 µg/mL).
For the compound `COc1ccc(CCN(C)CCCC(C#N)(c2ccc(OC)c(OC)c2)C2CCCCC2)cc1OC` (centres unmarked) [Compound A2, reference compound], the MIC50 in assay [1] (setting [12]) was 36 µM (≈ 17.8 µg/mL). The MIC90 in assay [1] (setting [9]) and in assay [1] (setting [13]) was 118 µM (≈ 58.4 µg/mL) each time. The “MIC99 Mtb” value in assay [8] was 62.5 µM (≈ 30.9 µg/mL).
